Measurements from patent US9320723B2, “Methods of treating thyroid eye disease” (University of Rochester, priority 2010, dated 2016).

Key:
HMC-1 cells = test: Measurement of PGD2 produced by mast cells (PGD2-MOX EIA); assay type: cell-based, human; conditions: HQL-79 100 μM 60 minutes, then A23187
Description: HMC-1 cells (1×10^6/well) were seeded into 6-well plates and cultured in IMDM medium with 5% FBS in the absence or presence of HQL-79 (H-PGDS inhibitor, 100 μM) at 37° C. for 60 minutes. The cells were then washed and resuspended in RPMI 1640 medium with 0.5% FBS. After 2 hours incubation, the cells were stimulated with 10 μM calcium ionophore A23187 for 30 minutes. The culture media were collected and PGD2 in the supernatants was quantified by PGD2-MOX EIA kits (Cayman Chemical).

[1] = system: orbital fibroblasts co-cultured with HMC-1 cells; test: Co-culture of HMC-1 mast cells with orbital fibroblasts, HA ELISA; assay type: cell-based, human; conditions: HMC-1 cells pretreated with HQL-79, ratio 20:1, compared to vehicle
Description: HMC-1 mast cells were allowed to proliferate in Iscove's Modified Dulbecco's Medium (IMDM) enriched with 5% FBS. Co-cultures were initiated by introducing HMC-1 cells to confluent cultures of fibroblasts as previously described (24). Mast cells were washed with RPMI-1640 medium (0.5% FBS) once before addition to the fibroblasts (1:1 ratio, unless otherwise specified). After 4 hours, the media and HMC-1 cells were removed by gently rinsing in PBS and fresh RPMI-1640 medium (0.5% FBS) was used to cover the cells. Alternatively, fibroblasts and mast cells were co-cultured in a transwell system (0.4 μm; Greiner Bio-one, New York, N.Y.) with fibroblasts being cultured on the bottom and the mast cells in the top chamber. The ratio of mast cells to fibroblasts was varied from 5:1 to 20:1.
Aliquots of culture medium were removed at indicated time points, centrifuged (5 min, 8,000×g at 4° C.) and HA levels quantified by enzyme-linked immunosorbent assay (ELISA) according to the manufacturer's protocol (R&D Systems). Briefly, samples were incubated in HA-binding protein (HABP)-coated microwells, allowing HA in samples to react with the immobilized HABP. […] After the last wash, the chromogenic substrate was added and HA levels were determined using a Varioskan Flash plate reader (Thermo Fisher Scientific, Milford, Mass.).

[2] = system: human orbital fibroblasts; test: HA ELISA of culture medium of orbital fibroblasts treated with prostaglandins or drugs; assay type: cell-based; conditions: 18 hours, strains OF1 and OF2
From the text: Orbital fibroblasts: Primary orbital fibroblasts were isolated from TED patients undergoing orbital decompression surgery. The protocols for orbital biopsy and blood sample, described below, were approved by the Internal Review Board and informed, written consent was obtained from all patients. […] Fibroblasts were characterized by their adherent morphology, expression of vimentin and types I and III collagen and absence of CD45, factor VIII or cytokeratin. Fibroblasts were used at the earliest passage possible (between passages 4 to 10). Human T cells: Lymphocytes were isolated from 60 ml of peripheral blood obtained during orbital decompression surgery. Whole blood was separated over a Ficoll-Paque Plus Gradient (Amersham Biosciences, Piscataway, N.J.) to obtain peripheral blood mononuclear cells. T cells were enriched using CD3/CD28 T cell Expander beads (Invitogen). […] After that, 50 U/ml of recombinant interleukin-2 (rIL-2) was added to the culture and incubated for another 2-3 days. On day 5, cells were diluted to a concentration of 0.5×10^6 cells/ml in medium containing 50 U/ml rIL-2 and incubated for an additional 3-7 days. Cellular purity was assessed using an anti-CD3-PE antibody (BD Biosciences, San Jose, Calif.) and analyzed on a FACSCalibur flow cytometer (BD Biosciences).
Aliquots of culture medium were removed at indicated time points, centrifuged (5 min, 8,000×g at 4° C.) and HA levels quantified by enzyme-linked immunosorbent assay (ELISA) according to the manufacturer's protocol (R&D Systems). Briefly, samples were incubated in HA-binding protein (HABP)-coated microwells, allowing HA in samples to react with the immobilized HABP. After the removal of unbound molecules by washing, biotinylated-HABP was added to the microwells. Following a second wash, streptavidin-conjugated to horseradish peroxidase was added. After the last wash, the chromogenic substrate was added and HA levels were determined using a Varioskan Flash plate reader (Thermo Fisher Scientific, Milford, Mass.).

[3] = system: human orbital fibroblasts (OF1 and OF2); test: Agarose gel electrophoresis of HA in conditioned media; assay type: cell-based; conditions: 5 μM PGD2, 18 hours
Description: Fibroblasts were cultured to confluence in 10 cm^2 dishes in RPMI containing 10% FBS, followed by RPMI with 2% FBS for 3 days. Fibroblasts were then treated with 5 μM PGD2 or control (DMSO) for 18 hours. Cell culture supernatant was centrifuged (5 min at 8,000×g at 4° C.) and half of the sample digested with 1 TRU/ml Streptomyces hyaluronidase (Sigma) at 37° C. for 4 hours; the remainder of the sample was mock-digested. Following digestion with proteinase K (120 μg/ml) (Qiagen, Valencia, Calif.) at 37° C. for 4 hours, the samples were concentrated using Vivaspin 10,000 Da cut-off ultrafiltration spin column (Sartorius Stedim Biotech, Goettingen, Germany), washed with PBS and analyzed by 1% agarose electrophoresis. Select-HA HiLadder (Hyalose LLC, Oklahoma City, Okla.) and blue dextran (Sigma; molecular weight 2×10^6 Da) were also run as standards. The gel was stained with 0.005% Stains-All (Sigma) in 50% ethanol overnight at room temperature before being scanned on an HP scanner.

[4] = system: orbital fibroblast strains OF1 and OF2; test: qRT-PCR of hyaluronidase mRNA (HYAL1-3); assay type: cell-based, human; conditions: 5 μM PGD2, 4 hours
Description: (§1) RNA was isolated from orbital fibroblasts or T cells using an RNeasy Mini kit (Qiagen). RNA was reverse transcribed to cDNA using iScript cDNA synthesis kit (Bio-Rad) and diluted 5-fold in RNase-free H2O. Forward and reverse primers for each gene are shown in Table I. RT-PCR: The PCR reaction was performed using Qiagen Fast Cycling PCR kit for 30 cycles in a Bio-Rad thermal cycler. The PCR product was visualized on a 5% acrylamide gel stained with ethidium bromide. Amplifications without reverse transcriptase were carried out as negative controls. qRT-PCR: qRT-PCR was performed in a Bio-Rad iCycler containing B-R SYBR Green SuperMix for IQ (Quanta Biosciences, Gaithersburg, Md.). Efficiency of the amplification was determined to be >90%.
(§2) Amplification of 7S ribosomal RNA was carried out for each cDNA (in triplicate) for normalization. Threshold cycle number (Ct) of amplification in each sample was determined by Bio-Rad software and the relative mRNA abundance was calculated as the Ct for amplification of a gene-specific cDNA minus average Ct for 7S, expressed as a power of 2; i.e., 2^ΔCt.

[5] = system: human orbital fibroblasts; test: qRT-PCR of HAS mRNA after PGD2 or BW245C; assay type: cell-based; conditions: 5 μM PGD2, 2 hours
Description: as §1, §2

orbital fibroblasts [6] = test: Measurement of intracellular cAMP (TR-FRET immunoassay); assay type: cell-based, human; conditions: PGD2 5 μM, BW245C 10 μM, up to 60 minutes
Description: cAMP levels were quantified using a time-resolved fluorescence resonance energy transfer (TR-FRET) immunoassay from Perkin Elmer (Waltham, Mass.) according to the manufacturer's protocol. Briefly, orbital fibroblasts were detached with a non-enzymatic cell dissociation solution (Versene, Invitrogen) and re-suspended in Stimulation Buffer (pH 7.4; 1×HBSS buffer containing 5 mmol/L HEPES buffer and 0.01%-0.1% BSA) containing 0.5 mM IBMX and labeled with the Alexa Fluor® 647-labeled anti-cAMP antibody. Finally, the cells were incubated with drugs at the indicated times. Following addition of the detection buffer, the amount of cAMP signal was measured.

[7] = system: human orbital fibroblasts; conditions: previously reported (Feldon et al. 2006); cited from earlier work
[8] = system: human orbital fibroblasts; test: Quantitation of secreted, pericellular and intracellular HA by ELISA, TGF-β1 treatment; assay type: cell-based
Description: Confluent monolayers of orbital fibroblasts were serum starved in 0.5% FBS RPMI-1640 medium for three days and pretreated with different concentrations of Pio or Rosi for 1 hour and then treated with or without 2 ng/ml TGF-β1 for 24 hours. After treatments, an aliquot of culture medium (secreted HA) was removed and centrifuged at 8,000×g at 4° C. for 5 minutes and the supernatant was saved for later analysis. The cells were washed twice with PBS and treated with 0.25% trypsin-EDTA solution (GIBCO, Invitrogen) at 37° C. for 5 minutes, the reaction was stopped by addition of culture medium and cell number was determined using a hemocytometer. The cells were then centrifuged and the supernatant was collected and incubated at 100° C. for 10 minutes to inactivate trypsin activity. This supernatant was saved for pericellular HA detection. The cell pellet was washed with PBS once and digested with 120 μg/ml proteinase K in 0.1% SDS/0.1 M Tris-HCl (pH 7.6) at 37° C. for 1 hour, and proteinase K was inactivated by incubation at 100° C. for 10 min. The cell lysate was centrifuged and supernatant analyzed for intracellular HA.
The amount of HA in each extract (secreted HA, pericellular HA and intracellular HA) was measured by ELISA based on the specific interaction of HA with HA binding protein (HABP). The HA detection kit was purchased from R&D system (Minneapolis, Minn.). Briefly, diluted samples were incubated in HABP-coated microwells, allowing HA present in samples to react with the immobilized HABP. After extensive washing, biotinylated HABP was added to the microwells to form complexes with bound HA. Following another round of washing, streptavidin conjugated horseradish peroxidase was added. After a brief incubation period and washing, chromogenic substrate was added and HA levels were determined using a Varioskan Flash plate reader (Thermo Fisher Scientific, Milford, Mass.). A fraction of the samples were pretreated with Streptomyces hyaluronidase (2 U/ml at 37° C. for 2 hour) before subjected to the ELISA assay as a negative control. Furthermore, an additional 50 ng/ml (final concentration) of free soluble HA was added to a fraction of the cell lysate samples to confirm that there are no inhibitory factors present and that the assays show the expected additivity when a known amount of exogenous HA is included.

[9] = system: human orbital fibroblasts; test: qRT-PCR of HAS mRNA after TGF-β1 with or without Pio or Rosi; assay type: cell-based; conditions: 2 ng/ml TGF-β1, 6 hours
From the text: RNA was isolated from orbital fibroblast strains using the RNeasy Mini kit according to the manufacturer's protocol (Qiagen, Valencia, Calif.) and reverse transcripted to cDNA using iScript cDNA synthesis kit (Bio-Rad, Hercules, Calif.). Primers for human HAS1, 2, 3 and 7S as well as qRT-PCR method to detect relative abundance of mRNA are identified supra. Primers for human PPARγ1 (NM138711) and PPARγ 2 (NM015869) mRNA were 5′-AAAGAAGCCGA-CACTAAACC-3′ (SEQ ID NO:3) (sense), 5′-CTTCCATTACGG-AGAGATCC-3′ (SEQ ID NO:4) (antisense) and, 5′-GCGATTC-CTTCACTGATAC-3′ (SEQ ID NO:5) (sense), 5′-CTTCCATT-ACGGAGAGATCC-3′ (SEQ ID NO:6) (antisense), respectively.

[10] = system: human peripheral blood T cells adhering to orbital fibroblasts; test: T cell adhesion assay; assay type: cell-based; conditions: fibroblasts treated with 2 ng/ml TGF-β1, 24 hours
Description: Confluent orbital fibroblasts in a 96-well plate were serum starved and incubated with different concentrations of Pio or Rosi treated with or without 2 ng/ml TGF1 for 24 hours. In some cultures, orbital fibroblasts were treated with Streptomyces hyaluronidase (100 mU/ml at 37° C. for 1 hour) prior to the adhesion assay to deplete endogenous HA. Adhesion Test. Immediately before the adhesion assay, the conditioned medium of orbital fibroblasts was removed to eliminate treatments and secreted ECM. 1×10^5/well of Calcein AM labeled T cells were added to a 96-well plate with a confluent orbital fibroblast monolayer and allowed to adhere for 90 min at 4° C. as previously described. Plates were washed three times with the addition of 200 ul of PBS followed by plate inversion and gentle tapping to remove the wash solution. Fluorescence was measured with an excitation of 485 nm and detection of 535 nm, in a Varioskan Flash plate reader (Thermo Electron Corporation).

orbital fibroblasts [11] = test: Immunofluorescence staining of HA with biotinylated HABP; assay type: cell-based, human; conditions: 2 ng/ml TGF-β1, 24 hours
Description: Orbital fibroblasts were cultured in 8-chamber slides (BD REF354108) and fixed in room temperature 3% paraformaldehyde in PBS and stained with 1 μg/ml biotinylated HABP (Seikagaku, Cape Cod) followed by Cy3-conjugated streptavidin (Jackson laboratories, West Grove, Pa.). F-actin was stained with Phalloidin (Molecular Probes). In some cultures, orbital fibroblasts were treated with Streptomyces hyaluronidase prior to staining T cells were stained with an anti-CD3 monoclonal antibody (clone UCHT, SouthernBiotech, Birmingham, Ala.) followed by a goat anti-mouse antibody labeled with Alexa-488 (Molecular Probes). DAPI (10 μg/ml, Anaspec, San Jose, Calif.) was used for nuclear staining.

[12] = 2 ng/ml TGF-β1, 24 hours, strain #1, compared to vehicle

c1ccc(C(OC2CCN(CCCc3nnn[nH]3)CC2)c2ccccc2)cc1 [HQL-79, 4-benzhydryloxy-1-[3-(1H-tetrazol-5-yl)-propyl]-piperidine]
level of PGD2 in activated HMC-1 cells (HMC-1 cells): significantly reduced the level of PGD2 in activated HMC-1 cells
production of HA by orbital fibroblasts in transwell co-culture [1]: significantly attenuated the production of HA by orbital fibroblasts

CCCCC[C@H](O)/C=C/[C@H]1C(=O)C[C@H](O)[C@@H]1C/C=C\CCCC(=O)O [PGD2]
concentration yielding the largest induction of HA [2]: 5 µM
HA synthesis (HA ELISA) ([2]; increasing concentrations): significantly increased HA synthesis by both fibroblast strains in a dose-dependant manner
HA in conditioned media (agarose gel) [3]: increased HA compared with vehicle
HYAL1, HYAL2 and HYAL3 mRNA ([4]; strain OF1): significant induction in HYAL1, HYAL2 and HYAL3 mRNA
hyaluronidase mRNA expression ([4]; strain OF2): failed to significantly increase hyaluronidase mRNA expression
HAS1, HAS2 and HAS3 mRNA [5]: the mRNA for all three HAS isoforms increased significantly
increase in HAS1 mRNA ([5]; compared to time 0): 2807±213
intracellular cAMP production (orbital fibroblasts [6]): significantly increased intracellular cAMP production within 15 to 30 minutes
adipogenesis in human orbital fibroblasts [7]: induce adipogenesis

TGF-β1: Recombinant human TGF-β1 purchased from Calbiochem
intracellular HA levels ([8]; 2 ng/ml TGF-β1, 24 hours): had no effect on intracellular HA levels
increase of pericellular HA levels [8, 12]: 8.34±1.33 fold
increase of secreted HA levels [8, 12]: 12.16±0.15 fold
share of newly synthesized HA secreted into the ECM ([8]; TGF-β1 mediated): about 70%
secreted HA compared with pericellular HA ([8]; fibroblasts treated with TGF-β1, strain #1): 2.31±0.36 fold
HAS3 mRNA levels [9]: remained unchanged
increase of HAS1 mRNA levels [9]: about 50 fold
increase of HAS2 mRNA levels [9]: ~6 fold
adhesion of T cells to orbital fibroblasts [10]: significantly increased compared to untreated control fibroblasts
HA staining (immunofluorescence) (orbital fibroblasts [11]): HA staining is more pronounced and forms microvillus-like protrusions
